Assay results published in ChEMBL document CHEMBL3596180, “Evaluation of histone deacetylase inhibitors (HDACi) as therapeutic leads for human African trypanosomiasis (HAT)” (Bioorg Med Chem, 2015).
The source made the active and inactive calls. The calls are words filed in the database; no cut-off is given here.

What was measured:
[1] = target: Histone deacetylase 1 (Homo sapiens, UniProt Q13547); assay: Inhibition of human HDAC1
[2] = target: Histone deacetylase 4 (Homo sapiens, UniProt P56524); assay: Inhibition of human HDAC4
[3] = target: T1, Protein deacetylase HDAC6 (Homo sapiens, UniProt Q9UBN7); assay: Inhibition of human HDAC6
T1 sequence (Q9UBN7 whole entry): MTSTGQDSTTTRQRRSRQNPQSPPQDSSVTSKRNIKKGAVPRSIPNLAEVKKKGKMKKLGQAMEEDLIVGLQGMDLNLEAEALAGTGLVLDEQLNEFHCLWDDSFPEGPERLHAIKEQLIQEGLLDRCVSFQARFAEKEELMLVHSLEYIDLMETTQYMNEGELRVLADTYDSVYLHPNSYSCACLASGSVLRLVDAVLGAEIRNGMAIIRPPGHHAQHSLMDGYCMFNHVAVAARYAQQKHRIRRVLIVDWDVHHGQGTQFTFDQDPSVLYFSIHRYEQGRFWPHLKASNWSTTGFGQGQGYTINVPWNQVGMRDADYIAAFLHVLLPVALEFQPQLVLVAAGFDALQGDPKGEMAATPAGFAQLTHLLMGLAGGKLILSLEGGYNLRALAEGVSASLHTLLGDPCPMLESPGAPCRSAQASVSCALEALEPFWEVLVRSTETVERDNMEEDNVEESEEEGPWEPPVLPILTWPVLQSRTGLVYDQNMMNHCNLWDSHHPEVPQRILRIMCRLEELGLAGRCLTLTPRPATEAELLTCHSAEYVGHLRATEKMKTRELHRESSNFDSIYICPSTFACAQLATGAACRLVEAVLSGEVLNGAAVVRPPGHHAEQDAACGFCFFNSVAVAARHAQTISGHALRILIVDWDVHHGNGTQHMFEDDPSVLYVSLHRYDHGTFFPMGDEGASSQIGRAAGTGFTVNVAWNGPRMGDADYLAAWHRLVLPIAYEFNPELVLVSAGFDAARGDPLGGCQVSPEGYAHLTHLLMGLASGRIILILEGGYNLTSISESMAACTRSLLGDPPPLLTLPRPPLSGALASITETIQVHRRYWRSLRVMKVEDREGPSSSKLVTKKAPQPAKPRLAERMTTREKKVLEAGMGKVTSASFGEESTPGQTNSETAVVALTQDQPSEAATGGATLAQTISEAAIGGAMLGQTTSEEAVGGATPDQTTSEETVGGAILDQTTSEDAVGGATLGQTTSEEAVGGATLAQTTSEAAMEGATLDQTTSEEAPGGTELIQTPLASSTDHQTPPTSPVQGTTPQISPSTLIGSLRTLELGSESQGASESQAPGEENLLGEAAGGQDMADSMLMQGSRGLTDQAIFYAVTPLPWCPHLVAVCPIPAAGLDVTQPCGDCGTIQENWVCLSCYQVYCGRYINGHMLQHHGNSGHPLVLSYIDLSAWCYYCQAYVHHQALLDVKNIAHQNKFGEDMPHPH

[4] = target: Histone deacetylase 3 (Homo sapiens, UniProt O15379); assay: Inhibition of human HDAC3
[5] = Cmax in po dosed human measured under phase 2 trial; format: ADME, organism-based; design: route oral; details: in vivo
[6] = AUC in po dosed human measured under phase 1 trial; format: ADME, organism-based; details: in vivo
[7] = AUC in po dosed human measured under phase 2 trial; format: ADME, organism-based; details: in vivo
[8] = Half-life in iv dosed human measured under phase 1 trial; format: ADME, organism-based; details: in vivo
[9] = Half-life in po dosed human measured under phase 2 trial; format: ADME, organism-based; details: in vivo
[10] = Tmax in po dosed human measured under phase 2 trial; format: ADME, organism-based; details: in vivo
[11] = Tmax in iv dosed human measured under phase 1 trial; format: ADME, organism-based; details: in vivo
[12] = Cmax in po dosed human measured under phase 1 trial; format: ADME, organism-based; design: route oral; details: in vivo
[13] = system: Trypanosoma brucei brucei; assay: Antitrypanosomal activity against Trypanosoma brucei brucei 427 assessed as inhibition of parasite proliferation measured as ATP levels after 48 hrs by luciferase-based assay; format: functional, organism-based; details: Trypanosoma brucei, 427, 48 h
[14] = AUC in iv dosed human measured under phase 1 trial; format: ADME, organism-based; details: in vivo
[15] = Cmax in iv dosed human measured under phase 1 trial; format: ADME, organism-based; design: route intravenous; details: in vivo
[16] = Half-life in po dosed human measured under phase 1 trial; format: ADME, organism-based; details: in vivo
[17] = Tmax in po dosed human measured under phase 1 trial; format: ADME, organism-based; details: in vivo
[18] = system: Trypanosoma brucei brucei; assay: Trypanocidal activity against Trypanosoma brucei brucei assessed as killing of parasite densities of 10^4 to 10^6 cells/ml at 2.2 uM by clonal dilution method; format: functional, organism-based
[19] = species: Homo sapiens; assay: Half-life in human; format: ADME, organism-based; details: in vivo
[20] = Cmax in human; format: ADME, organism-based; details: in vivo
[21] = target: T2, Histone deacetylase 11 (Homo sapiens, UniProt Q96DB2); assay: Inhibition of human HDAC11
T2 sequence (Q96DB2 whole entry): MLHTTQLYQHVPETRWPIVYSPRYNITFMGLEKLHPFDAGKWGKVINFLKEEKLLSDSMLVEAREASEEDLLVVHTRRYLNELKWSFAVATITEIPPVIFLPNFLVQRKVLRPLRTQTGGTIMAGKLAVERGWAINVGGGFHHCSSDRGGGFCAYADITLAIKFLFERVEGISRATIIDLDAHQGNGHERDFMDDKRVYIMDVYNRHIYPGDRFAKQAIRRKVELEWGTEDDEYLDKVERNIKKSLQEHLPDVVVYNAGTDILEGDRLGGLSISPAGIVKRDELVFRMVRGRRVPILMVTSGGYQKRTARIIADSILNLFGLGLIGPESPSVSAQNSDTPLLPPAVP

[22] = target: Histone deacetylase 9 (Homo sapiens, UniProt Q9UKV0); assay: Inhibition of human HDAC9
[23] = target: Histone deacetylase 5 (Homo sapiens, UniProt Q9UQL6); assay: Inhibition of human HDAC5
[24] = target: T3, Polyamine deacetylase HDAC10 (Homo sapiens, UniProt Q969S8); assay: Inhibition of human HDAC10
T3 sequence (Q969S8 whole entry): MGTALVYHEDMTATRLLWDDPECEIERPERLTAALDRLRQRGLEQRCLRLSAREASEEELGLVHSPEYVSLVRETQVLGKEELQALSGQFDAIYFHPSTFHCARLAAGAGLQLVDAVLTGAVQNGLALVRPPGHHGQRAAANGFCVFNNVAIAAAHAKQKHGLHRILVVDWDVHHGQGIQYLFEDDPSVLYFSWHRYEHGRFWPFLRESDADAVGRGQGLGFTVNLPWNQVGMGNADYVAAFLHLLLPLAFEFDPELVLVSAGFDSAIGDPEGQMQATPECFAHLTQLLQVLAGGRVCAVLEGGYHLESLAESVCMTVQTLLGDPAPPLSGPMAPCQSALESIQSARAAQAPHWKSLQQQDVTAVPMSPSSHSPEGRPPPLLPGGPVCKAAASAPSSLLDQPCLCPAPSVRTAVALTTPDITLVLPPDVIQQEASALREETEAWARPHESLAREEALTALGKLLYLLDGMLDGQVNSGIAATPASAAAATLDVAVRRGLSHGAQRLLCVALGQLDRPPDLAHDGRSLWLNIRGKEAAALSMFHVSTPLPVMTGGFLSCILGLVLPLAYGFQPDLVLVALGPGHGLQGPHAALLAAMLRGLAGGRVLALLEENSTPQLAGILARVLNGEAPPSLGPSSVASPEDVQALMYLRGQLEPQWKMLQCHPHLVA

[25] = target: T4, Histone deacetylase 7 (Homo sapiens, UniProt Q8WUI4); assay: Inhibition of human HDAC7
T4 sequence (Q8WUI4 whole entry): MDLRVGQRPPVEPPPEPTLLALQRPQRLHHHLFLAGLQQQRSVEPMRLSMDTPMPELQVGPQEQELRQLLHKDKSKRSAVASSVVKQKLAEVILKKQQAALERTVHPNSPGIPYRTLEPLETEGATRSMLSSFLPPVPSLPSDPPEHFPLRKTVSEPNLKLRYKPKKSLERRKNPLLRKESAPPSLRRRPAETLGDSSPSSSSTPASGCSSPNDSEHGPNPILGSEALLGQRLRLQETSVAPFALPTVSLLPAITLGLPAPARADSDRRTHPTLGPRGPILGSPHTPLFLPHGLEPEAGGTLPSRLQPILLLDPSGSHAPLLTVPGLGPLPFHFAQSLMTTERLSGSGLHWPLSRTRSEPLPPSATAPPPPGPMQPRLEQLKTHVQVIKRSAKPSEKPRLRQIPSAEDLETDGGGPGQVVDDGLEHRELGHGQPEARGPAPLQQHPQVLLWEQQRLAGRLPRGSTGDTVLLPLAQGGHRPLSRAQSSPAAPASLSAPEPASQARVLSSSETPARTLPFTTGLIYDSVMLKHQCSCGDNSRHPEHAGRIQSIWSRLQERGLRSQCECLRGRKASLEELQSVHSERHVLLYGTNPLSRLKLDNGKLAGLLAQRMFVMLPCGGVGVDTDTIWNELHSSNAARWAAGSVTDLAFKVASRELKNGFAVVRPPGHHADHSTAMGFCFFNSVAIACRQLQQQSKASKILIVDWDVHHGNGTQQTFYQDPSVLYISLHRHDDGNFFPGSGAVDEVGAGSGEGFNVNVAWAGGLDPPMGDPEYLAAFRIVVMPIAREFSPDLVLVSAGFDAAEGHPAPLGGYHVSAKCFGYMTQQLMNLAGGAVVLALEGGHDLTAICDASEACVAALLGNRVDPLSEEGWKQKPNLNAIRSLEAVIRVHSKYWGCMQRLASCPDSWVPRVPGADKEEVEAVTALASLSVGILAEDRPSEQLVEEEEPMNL

[26] = target: Histone deacetylase 2 (Homo sapiens, UniProt Q92769); assay: Inhibition of human HDAC2
Chain of Histone deacetylase 2 (Q92769 whole entry): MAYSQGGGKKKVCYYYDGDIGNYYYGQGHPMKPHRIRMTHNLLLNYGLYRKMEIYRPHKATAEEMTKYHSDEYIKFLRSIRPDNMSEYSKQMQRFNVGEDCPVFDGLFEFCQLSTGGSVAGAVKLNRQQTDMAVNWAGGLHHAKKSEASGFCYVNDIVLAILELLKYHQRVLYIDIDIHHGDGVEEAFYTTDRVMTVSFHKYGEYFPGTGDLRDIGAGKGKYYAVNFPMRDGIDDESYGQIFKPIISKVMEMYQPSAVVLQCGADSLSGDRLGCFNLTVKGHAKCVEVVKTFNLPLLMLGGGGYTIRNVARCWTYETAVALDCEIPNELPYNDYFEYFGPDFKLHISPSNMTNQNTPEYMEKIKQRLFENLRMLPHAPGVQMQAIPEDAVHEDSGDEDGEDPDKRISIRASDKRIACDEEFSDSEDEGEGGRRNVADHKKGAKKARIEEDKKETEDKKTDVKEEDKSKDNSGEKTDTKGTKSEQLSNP

Chain of Histone deacetylase 1 (Q13547 whole entry): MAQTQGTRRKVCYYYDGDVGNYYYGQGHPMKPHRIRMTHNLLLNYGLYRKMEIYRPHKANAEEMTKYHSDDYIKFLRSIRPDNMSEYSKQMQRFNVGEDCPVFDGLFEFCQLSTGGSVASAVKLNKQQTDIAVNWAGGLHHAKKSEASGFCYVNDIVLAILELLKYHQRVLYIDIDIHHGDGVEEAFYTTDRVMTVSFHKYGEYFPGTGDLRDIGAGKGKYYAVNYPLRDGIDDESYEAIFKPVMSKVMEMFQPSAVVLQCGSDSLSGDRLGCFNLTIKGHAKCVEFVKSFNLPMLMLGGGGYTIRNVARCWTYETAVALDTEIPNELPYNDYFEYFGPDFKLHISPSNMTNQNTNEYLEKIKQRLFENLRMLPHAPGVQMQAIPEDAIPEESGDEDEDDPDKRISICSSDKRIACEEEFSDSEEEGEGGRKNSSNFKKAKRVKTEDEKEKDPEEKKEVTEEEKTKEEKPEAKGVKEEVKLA
Chain of Histone deacetylase 5 (Q9UQL6 whole entry): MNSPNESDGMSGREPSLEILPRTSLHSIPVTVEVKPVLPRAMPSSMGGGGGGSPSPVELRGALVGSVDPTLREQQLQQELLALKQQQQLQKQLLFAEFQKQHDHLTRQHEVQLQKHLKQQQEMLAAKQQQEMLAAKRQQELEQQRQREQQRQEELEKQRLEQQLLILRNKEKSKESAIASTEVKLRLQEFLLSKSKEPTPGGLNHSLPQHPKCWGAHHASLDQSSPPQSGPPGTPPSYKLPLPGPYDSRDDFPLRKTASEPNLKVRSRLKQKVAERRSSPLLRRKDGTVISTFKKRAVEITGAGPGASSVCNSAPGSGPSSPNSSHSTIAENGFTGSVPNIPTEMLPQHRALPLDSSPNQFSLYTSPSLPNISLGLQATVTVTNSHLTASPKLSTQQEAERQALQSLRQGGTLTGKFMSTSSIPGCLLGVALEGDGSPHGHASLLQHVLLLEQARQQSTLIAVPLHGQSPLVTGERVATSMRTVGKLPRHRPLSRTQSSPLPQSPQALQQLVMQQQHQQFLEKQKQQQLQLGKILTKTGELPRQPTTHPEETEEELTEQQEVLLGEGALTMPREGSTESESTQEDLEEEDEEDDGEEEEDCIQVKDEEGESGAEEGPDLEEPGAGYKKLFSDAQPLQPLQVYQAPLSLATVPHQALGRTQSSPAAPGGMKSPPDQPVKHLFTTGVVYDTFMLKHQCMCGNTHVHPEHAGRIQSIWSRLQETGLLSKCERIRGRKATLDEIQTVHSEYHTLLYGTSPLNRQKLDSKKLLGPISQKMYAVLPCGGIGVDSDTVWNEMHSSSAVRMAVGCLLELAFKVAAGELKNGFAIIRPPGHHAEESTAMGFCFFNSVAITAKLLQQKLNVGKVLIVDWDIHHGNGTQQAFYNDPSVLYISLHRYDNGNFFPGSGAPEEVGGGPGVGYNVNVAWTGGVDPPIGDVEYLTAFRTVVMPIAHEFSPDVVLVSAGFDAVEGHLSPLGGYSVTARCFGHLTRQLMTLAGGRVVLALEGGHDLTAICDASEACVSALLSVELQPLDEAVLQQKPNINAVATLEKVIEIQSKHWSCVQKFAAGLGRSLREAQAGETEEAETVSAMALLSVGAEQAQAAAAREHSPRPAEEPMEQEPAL
Chain of Histone deacetylase 3 (O15379 whole entry): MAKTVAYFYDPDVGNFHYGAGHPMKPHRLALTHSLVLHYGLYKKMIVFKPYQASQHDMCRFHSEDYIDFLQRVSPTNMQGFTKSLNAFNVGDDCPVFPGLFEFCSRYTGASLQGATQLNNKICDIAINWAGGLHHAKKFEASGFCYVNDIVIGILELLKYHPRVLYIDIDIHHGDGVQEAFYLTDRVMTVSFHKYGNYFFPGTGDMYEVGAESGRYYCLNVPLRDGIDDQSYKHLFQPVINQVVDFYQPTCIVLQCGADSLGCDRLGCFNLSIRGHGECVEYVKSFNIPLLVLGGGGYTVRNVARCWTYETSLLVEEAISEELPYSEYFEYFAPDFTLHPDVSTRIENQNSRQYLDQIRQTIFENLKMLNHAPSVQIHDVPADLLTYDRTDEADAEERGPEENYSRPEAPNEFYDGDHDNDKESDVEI
Chain of Histone deacetylase 9 (Q9UKV0 whole entry): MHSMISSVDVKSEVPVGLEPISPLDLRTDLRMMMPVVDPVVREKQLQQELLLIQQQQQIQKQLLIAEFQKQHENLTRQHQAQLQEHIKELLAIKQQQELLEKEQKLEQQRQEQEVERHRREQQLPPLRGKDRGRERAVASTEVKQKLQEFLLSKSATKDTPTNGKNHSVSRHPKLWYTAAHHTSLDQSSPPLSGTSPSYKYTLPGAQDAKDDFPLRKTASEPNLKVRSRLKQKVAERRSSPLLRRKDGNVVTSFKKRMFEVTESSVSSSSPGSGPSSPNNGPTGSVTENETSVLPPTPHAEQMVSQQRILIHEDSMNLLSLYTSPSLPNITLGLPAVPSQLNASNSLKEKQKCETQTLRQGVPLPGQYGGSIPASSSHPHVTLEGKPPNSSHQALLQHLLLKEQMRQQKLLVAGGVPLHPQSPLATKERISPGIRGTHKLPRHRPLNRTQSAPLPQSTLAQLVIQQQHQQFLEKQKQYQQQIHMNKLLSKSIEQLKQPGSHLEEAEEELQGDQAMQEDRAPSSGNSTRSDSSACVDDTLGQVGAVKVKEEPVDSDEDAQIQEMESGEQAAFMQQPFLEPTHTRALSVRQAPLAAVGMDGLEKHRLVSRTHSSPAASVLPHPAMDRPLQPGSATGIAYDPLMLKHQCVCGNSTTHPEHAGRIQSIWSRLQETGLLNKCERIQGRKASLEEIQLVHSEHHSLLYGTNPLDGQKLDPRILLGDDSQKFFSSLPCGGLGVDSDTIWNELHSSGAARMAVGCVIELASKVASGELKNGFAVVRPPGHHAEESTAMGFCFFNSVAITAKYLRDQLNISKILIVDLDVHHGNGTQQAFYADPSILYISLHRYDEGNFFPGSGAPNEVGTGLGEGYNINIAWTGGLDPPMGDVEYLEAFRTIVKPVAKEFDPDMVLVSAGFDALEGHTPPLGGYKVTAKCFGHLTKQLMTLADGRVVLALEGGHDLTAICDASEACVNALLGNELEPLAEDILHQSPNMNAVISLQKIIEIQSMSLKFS
Chain of Histone deacetylase 4 (P56524 whole entry): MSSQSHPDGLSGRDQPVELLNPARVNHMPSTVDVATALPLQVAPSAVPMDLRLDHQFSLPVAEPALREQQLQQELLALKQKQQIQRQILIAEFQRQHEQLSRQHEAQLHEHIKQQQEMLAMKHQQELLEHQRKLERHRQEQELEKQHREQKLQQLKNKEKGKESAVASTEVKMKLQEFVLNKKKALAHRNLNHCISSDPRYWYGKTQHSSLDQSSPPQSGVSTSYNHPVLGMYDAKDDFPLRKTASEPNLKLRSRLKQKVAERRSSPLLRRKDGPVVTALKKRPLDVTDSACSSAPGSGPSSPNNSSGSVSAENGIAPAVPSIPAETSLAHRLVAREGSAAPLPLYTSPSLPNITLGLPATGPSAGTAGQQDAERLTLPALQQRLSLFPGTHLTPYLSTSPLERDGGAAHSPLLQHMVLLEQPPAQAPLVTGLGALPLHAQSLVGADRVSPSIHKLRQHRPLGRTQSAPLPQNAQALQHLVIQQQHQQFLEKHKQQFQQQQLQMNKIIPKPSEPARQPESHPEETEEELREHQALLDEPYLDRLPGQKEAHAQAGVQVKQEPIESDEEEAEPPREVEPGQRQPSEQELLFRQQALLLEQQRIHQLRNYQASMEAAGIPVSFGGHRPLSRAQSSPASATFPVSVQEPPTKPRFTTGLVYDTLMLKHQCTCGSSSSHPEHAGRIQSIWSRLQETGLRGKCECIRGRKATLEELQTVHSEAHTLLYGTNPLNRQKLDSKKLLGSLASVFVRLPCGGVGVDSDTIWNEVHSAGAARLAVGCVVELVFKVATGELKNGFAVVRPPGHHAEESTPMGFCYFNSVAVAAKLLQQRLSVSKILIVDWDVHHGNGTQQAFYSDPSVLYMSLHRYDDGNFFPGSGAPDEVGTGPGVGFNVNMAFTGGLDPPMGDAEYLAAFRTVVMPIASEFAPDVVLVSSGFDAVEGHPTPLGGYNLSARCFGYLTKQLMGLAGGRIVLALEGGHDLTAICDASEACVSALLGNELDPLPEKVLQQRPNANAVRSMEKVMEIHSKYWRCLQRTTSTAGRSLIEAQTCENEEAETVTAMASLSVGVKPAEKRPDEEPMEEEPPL

## O=C(/C=C/C#Cc1cccc(NS(=O)(=O)c2ccccc2)c1)NO [OXAMFLATIN]
[1]
  Ki: 1.3 nM
[2]
  Ki: 2030 nM
[3]
  Ki: 136 nM
[4]
  Ki: 2.7 nM

## Cc1[nH]c2ccccc2c1CCNCc1ccc(/C=C/C(=O)NO)cc1 [PANOBINOSTAT]
[5]
  Cmax: 191 nM
[6]
  AUC: 91.3 ng·h/mL
[7]
  AUC: 356 ng·h/mL
[8]
  half-life: 16 h
[9]
  half-life: 15 h
[10]
  Tmax: 1 h
[11]
  Tmax: 0.5 h
[12]
  Cmax: 31 nM
[13]
  EC50: 1580 nM
  EC90: 4860 nM
[14]
  AUC: 605 ng·h/mL
[15]
  Cmax: 1410 nM
[16]
  half-life: 12.8 h
[17]
  Tmax: 1.5 h

## N=C(N)c1ccc(OCCCCCOc2ccc(C(=N)N)cc2)cc1 [PENTAMIDINE]
[18]
  Activity: Active
[19]
  t1/2: 265 h
[20]
  Cmax: 900 nM

## CCCCc1nc2cc(/C=C/C(=O)NO)ccc2n1CCN(CC)CC [PRACINOSTAT]
[6]
  AUC: 1030 ng·h/mL
[21]
  Ki: 43 nM
[12]
  Cmax: 497 nM
[13]
  EC50: 9550 nM

## Cn1cc(CNCC2CCN(c3ncc(C(=O)NO)cn3)CC2)c2ccccc21 [QUISINOSTAT]
[6]
  AUC: 9.77 ng·h/mL
[22]
  Ki: 3.8 nM
[23]
  Ki: 2.1 nM
[24]
  Ki: 0.05 nM
[12]
  Cmax: 3 nM
[13]
  EC50: 29 nM
[17]
  Tmax: 4 h

## CC(/C=C/C(=O)NO)=C\[C@@H](C)C(=O)c1ccc(N(C)C)cc1 [TRICHOSTATIN]
[13]
  EC50: 5000 nM

## O=C(CCCCCCC(=O)Nc1ccc([C@H]2O[C@@H](CSc3nc(-c4ccccc4)c(-c4ccccc4)o3)C[C@@H](c3ccc(CO)cc3)O2)cc1)NO [TUBACIN]
[1]
  Ki: 326 nM
[23]
  Ki: 1920 nM
[25]
  Ki: 5430 nM
[13]
  EC50: 3380 nM
[26]
  Ki: 1180 nM

## CN1CCc2c(c3ccccc3n2Cc2ccc(C(=O)NO)cc2)C1 [TUBASTATIN A]
[13]
  EC50: 2750 nM
